Data reported in US10323022B2, “Pyrrolidinyl urea, pyrrolidinyl thiourea and pyrrolidinyl guanidine compounds as TrkA kinase inhibitors” (Array BioPharma Inc., priority 2011, dated 2019).

target: TrkA (Homo sapiens (Human), UniProt P04629); experiment: TrkA Omnia Assay; type: biochemical; conditions: averaged IC50; 20 nM enzyme, 500 μM ATP, 10 μM peptide substrate
Method in brief: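 Continuous fluorescent kinase read-out (ex 360 nm, em 485 nm) over 70 min, with initial rates fitted to 4- or 5-parameter logistic curves for IC50. Final conditions: 500 μM ATP, 10 μM Omnia Tyr Peptide #4, 20 nM TrkA, MOPS pH 7.5 buffer with MgCl2 and Triton X-100; enzyme and compound preincubated 10 min at ambient temperature.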

Sequence of TrkA (P04629 33-796): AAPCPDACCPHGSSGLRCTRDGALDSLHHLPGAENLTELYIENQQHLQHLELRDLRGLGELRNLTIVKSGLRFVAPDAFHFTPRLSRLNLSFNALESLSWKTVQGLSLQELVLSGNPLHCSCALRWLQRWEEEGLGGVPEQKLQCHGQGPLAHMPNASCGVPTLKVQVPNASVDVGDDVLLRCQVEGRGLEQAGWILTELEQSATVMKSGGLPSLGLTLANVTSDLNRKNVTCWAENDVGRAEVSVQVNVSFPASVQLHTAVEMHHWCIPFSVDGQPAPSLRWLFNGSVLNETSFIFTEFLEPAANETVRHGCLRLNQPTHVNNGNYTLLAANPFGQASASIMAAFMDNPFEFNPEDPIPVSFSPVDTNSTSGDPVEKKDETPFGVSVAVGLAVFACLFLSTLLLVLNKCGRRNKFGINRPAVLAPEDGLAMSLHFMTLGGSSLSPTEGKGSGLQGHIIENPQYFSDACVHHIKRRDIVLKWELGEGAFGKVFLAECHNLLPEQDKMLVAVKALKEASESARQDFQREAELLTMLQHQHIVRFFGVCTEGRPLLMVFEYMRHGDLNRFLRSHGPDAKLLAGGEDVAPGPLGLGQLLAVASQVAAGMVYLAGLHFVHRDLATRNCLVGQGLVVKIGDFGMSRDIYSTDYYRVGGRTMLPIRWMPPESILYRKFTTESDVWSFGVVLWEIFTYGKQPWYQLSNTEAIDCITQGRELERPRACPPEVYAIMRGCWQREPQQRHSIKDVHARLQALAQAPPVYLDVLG

COCCN1C[C@@H](NC(=O)Nc2c3c(nn2-c2ccccc2)COC3)[C@H](c2ccccc2)C1 [Example 81, 1-((3S,4R)-1-(2-methoxy-ethyl)-4-phenylpyrrolidin-3-yl)-3-(2-phenyl-4,6-dihydro-2H-furo[3,4-c]pyrazol-3-yl)urea] and COCCN1C[C@@H](NC(=O)Nc2c3c(nn2-c2ccccc2)CSC3)[C@H](c2ccccc2)C1 [Example 82, 1-((3S,4R)-1-(2-methoxy-ethyl)-4-phenylpyrrolidin-3-yl)-3-(2-phenyl-4,6-dihydro-2H-thieno[3,4-c]pyrazol-3-yl)urea] cannot be ordered by IC50: less than 100 nM for the first, less than 100 nM for the second.

COCCN1C[C@@H](NC(=O)Nc2c(C)c(C)nn2-c2ccccc2)[C@H](c2cc(F)cc(F)c2)C1 [Example 83, 1-((3S,4R)-4-(3,5-difluoro-phenyl)-1-(2-methoxyethyl)pyrrolidin-3-yl)-3-(3,4-dimethyl-1-phenyl-1H-pyrazol-5-yl)urea] and COCCN1C[C@@H](NC(=O)Nc2c(C)c(C)nn2-c2ccccc2)[C@H](c2ccc(F)c(F)c2)C1 [Example 92, 1-((3S,4R)-4-(3,4-difluoro-phenyl)-1-(2-methoxyethyl)pyrrolidin-3-yl)-3-(3,4-dimethyl-1-phenyl-1H-pyrazol-5-yl)urea] cannot be ordered by IC50: less than 100 nM for the first, less than 100 nM for the second.

COCCN1C[C@@H](NC(=O)Nc2c3c(nn2-c2ccccc2)CCC3)[C@H](c2cc(F)cc(F)c2)C1 [Example 84, 1-((3S,4R)-4-(3,5-difluoro-phenyl)-1-(2-methoxyethyl)pyrrolidin-3-yl)-3-(2-phenyl-2,4,5,6-tetrahydro-cyclopenta[c]pyrazol-3-yl)urea] and COCCN1C[C@@H](NC(=O)Nc2c3c(nn2-c2ccccc2)COC3)[C@H](c2cc(F)cc(F)c2)C1 [Example 88, 1-((3S,4R)-4-(3,5-difluoro-phenyl)-1-(2-methoxyethyl)pyrrolidin-3-yl)-3-(2-phenyl-4,6-dihydro-2H-furo[3,4-c]pyrazol-3-yl) urea] cannot be ordered by IC50: less than 100 nM for the first, less than 100 nM for the second.

COCCN1C[C@@H](NC(=O)Nc2cc(C(C)C)nn2-c2ccccc2)[C@H](c2cc(F)cc(F)c2)C1 [Example 85, 1-((3S,4R)-4-(3,5-difluoro-phenyl)-1-(2-methoxyethyl)pyrrolidin-3-yl)-3-(3-isopropyl-1-phenyl-1H-pyrazol-5-yl)urea] and COCCN1C[C@@H](NC(=O)Nc2cc(C)nn2-c2ccccc2)[C@H](c2cc(F)cc(F)c2)C1 [Example 86, 1-((3S,4R)-4-(3,5-difluoro-phenyl)-1-(2-methoxyethyl)pyrrolidin-3-yl)-3-(3-methyl-1-phenyl-1H-pyrazol-5-yl)urea] cannot be ordered by IC50: less than 100 nM for the first, less than 100 nM for the second.

COCCN1C[C@@H](NC(=O)Nc2c3c(nn2-c2ccccc2)CSC3)[C@H](c2cc(F)cc(F)c2)C1 [Example 89, 1-((3S,4R)-4-(3,5-difluoro-phenyl)-1-(2-methoxyethyl)pyrrolidin-3-yl)-3-(2-phenyl-4,6-dihydro-2H-thieno[3,4-c]pyrazol-3-yl) urea] and COCCN1C[C@@H](NC(=O)Nc2c3c(nn2-c2ccccc2)CSC3)[C@H](c2ccc(F)c(F)c2)C1 [Example 91, 1-((3S,4R)-4-(3,4-difluoro-phenyl)-1-(2-methoxyethyl)pyrrolidin-3-yl)-3-(2-phenyl-4,6-dihydro-2H-thieno[3,4-c]pyrazol-3-yl) urea] cannot be ordered by IC50: less than 100 nM for the first, less than 100 nM for the second.

COCCN1C[C@@H](NC(=O)Nc2c3c(nn2-c2ccccc2)COC3)[C@H](c2ccc(F)c(F)c2)C1 [Example 90, 1-((3S,4R)-4-(3,4-difluoro-phenyl)-1-(2-methoxyethyl)pyrrolidin-3-yl)-3-(2-phenyl-4,6-dihydro-2H-furo[3,4-c]pyrazol-3-yl) urea] and COCCN1C[C@@H](NC(=O)Nc2cc(-c3ccccc3)nn2C)[C@H](c2ccc(F)c(F)c2)C1 [Example 93, 1-((3S,4R)-4-(3,4-difluoro-phenyl)-1-(2-methoxyethyl)pyrrolidin-3-yl)-3-(1-methyl-3-phenyl-1H-pyrazol-5-yl)urea] cannot be ordered by IC50: less than 100 nM for the first, less than 100 nM for the second.

COCCN1C[C@@H](NC(=O)Nc2cc(C(C)(C)CO)nn2-c2ccccc2)[C@H](c2ccccc2)C1 [Example 94, 1-(3-(1-hydroxy-2-methyl-propan-2-yl)-1-phenyl-1H-pyrazol-5-yl)-3-((3S,4R)-1-(2-methoxyethyl)-4-phenylpyrrolidin-3-yl)urea] and COCCN1C[C@@H](NC(=O)Nc2cc(COC)nn2-c2ccccc2)[C@H](c2ccccc2)C1 [Example 100, 1-((3S,4R)-1-(2-methoxy-ethyl)-4-phenylpyrrolidin-3-yl)-3-(3-(methoxy-methyl)-1-phenyl-1H-pyrazol-5-yl)urea] fall in the same range of IC50: 100 to 1000 nM for the first, 100 to 1000 nM for the second.

COCCN1C[C@@H](NC(=O)Nc2c3c(nn2-c2ccccc2)C[S+]([O-])C3)[C@H](c2ccccc2)C1 (stereo partly drawn) [Example 95, 1-((3S,4R)-1-(2-methoxy-ethyl)-4-phenylpyrrolidin-3-yl)-3-(5-oxido-2-phenyl-4,6-dihydro-2H-thieno [3,4-c]pyrazol-3-yl)urea] and COCCN1C[C@@H](NC(=O)Nc2c(C)c(COC)nn2-c2ccccc2)[C@H](c2ccccc2)C1 [Example 101, 1-((3S,4R)-1-(2-methoxy-ethyl)-4-phenylpyrrolidin-3-yl)-3-(3-(methoxy-methyl)-4-methyl-1-phenyl-1H-pyrazol-5-yl) urea] cannot be ordered by IC50: less than 100 nM for the first, less than 100 nM for the second.

COCCN1C[C@@H](NC(=O)Nc2cc(-c3ccncc3)nn2C)[C@H](c2ccccc2)C1 [Example 96, 1-((3S,4R)-1-(2-methoxy-ethyl)-4-phenylpyrrolidin-3-yl)-3-(1-methyl-3-(pyridin-4-yl)-1H-pyrazol-5-yl)urea] and COCCN1C[C@@H](NC(=O)Nc2cc(-c3ccncc3)nn2C)[C@H](c2ccc(F)c(F)c2)C1 [Example 97, 1-((3S,4R)-4-(3,4-difluorophenyl)-1-(2-methoxyethyl)pyrrolidin-3-yl)-3-(1-methyl-3-(pyridin-4-yl)-1H-pyrazol-5-yl)urea] cannot be ordered by IC50: less than 100 nM for the first, less than 100 nM for the second.

COCCN1C[C@@H](NC(=O)Nc2cc(-c3ccccc3)nn2C)[C@H](c2cc(F)cc(F)c2)C1 [Example 98, 1-((3S,4R)-4-(3,5-difluorophenyl)-1-(2-methoxyethyl)pyrrolidin-3-yl)-3-(1-methyl-3-phenyl-1H-pyrazol-5-yl) urea] and COCCN1C[C@@H](NC(=O)Nc2cc(-c3cccs3)nn2C)[C@H](c2cc(F)cc(F)c2)C1 [Example 99, 1-((3S,4R)-4-(3,5-difluorophenyl)-1-(2-methoxyethyl)pyrrolidin-3-yl)-3-(1-methyl-3-(thiophen-2-yl)-1H-pyrazol-5-yl)urea] cannot be ordered by IC50: less than 100 nM for the first, less than 100 nM for the second.

COCCN1C[C@@H](NC(=O)Nc2cc(-c3ccc(C)cc3)nn2C)[C@H](c2ccc(F)c(F)c2)C1 [Example 102, 1-((3S,4R)-4-(3,4-difluorophenyl)-1-(2-methoxyethyl)pyrrolidin-3-yl)-3-(1-methyl-3-p-tolyl-1H-pyrazol-5-yl)urea] and COCCN1C[C@@H](NC(=O)Nc2cc(-c3cccc(C)c3)nn2C)[C@H](c2ccc(F)c(F)c2)C1 [Example 103, 1-((3S,4R)-4-(3,4-difluorophenyl)-1-(2-methoxyethyl)pyrrolidin-3-yl)-3-(1-methyl-3-m-tolyl-1H-pyrazol-5-yl) urea] cannot be ordered by IC50: less than 100 nM for the first, less than 100 nM for the second.

COCCN1C[C@@H](NC(=O)Nc2cc(-c3ccccc3C)nn2C)[C@H](c2ccc(F)c(F)c2)C1 [Example 104, 1-((3S,4R)-4-(3,4-difluorophenyl)-1-(2-methoxyethyl)pyrrolidin-3-yl)-3-(1-methyl-3-o-tolyl-1H-pyrazol-5-yl) urea] gave an IC50 of less than 100 nM.
